Data: patent publication US5236927A, “Anti-cancer quinazoline derivatives” (National Research Development Corporation, priority 1985, dated 1993)
Several values for one entry are separate records, joined by “and”; a condition that tells them apart may be missing. Equal values may be shown once. Read-outs that look alike come from different tables or passages of the source.

Tests used:
L1210/C15 cells = assay: L1210/C15 cell culture growth inhibition (overproduces TS 45-fold); format: cell-based; settings: 48 hours; at 100 uM
Method: Cell counts after 48 hours of incubation were obtained by Coulter counting.

[1] = Toxicity and weight loss in treated L1210 tumour-bearing mice; format: in vivo, mouse
Method: (§1) The L1210 tumour is carried routinely in DBA2 mice at the Institute of Cancer Research (L1210/CBRI). For experiments 5×10^4 cells were implanted i.p. into male C57Bl×DBA2 F1 hybrid mice 3 days prior to treatment. […] The control group consisted of 9 mice and treated groups 6 or 7 mice.

alanine transaminase [2] = assay: Comparative hepatotoxicity in the mouse (plasma alanine transaminase); format: in vivo
Method: […]. Plasma was prepared and the livers and kidneys excised and weighed.
Samples of plasma were also analysed for the enzyme alanine transaminase, an indicator of hepatotoxicity. […]

L1210 tumour = assay: Treatment of L1210 tumour-bearing mice; format: in vivo, mouse
Method: as §1

Pharmacokinetics in rats = settings: 100 mg/kg 1 h i.v. infusion; for concentration: read-out: Plasma levels
Method: (§2) During and after the infusion blood and bile samples were collected. Four hours after the experiment the rats were sacrificed and the urine collected from the bladder and the liver and kidneys removed.
(§3) Samples of plasma were also analysed for alanine transaminase.

alanine transaminase [3] = settings: rat, in vivo
Method: as §2, §3

[4] = Urinary and faecal elimination in the mouse; format: in vivo; settings: 100 mg/kg i.p.; for dose excreted at 48 h: ip, 0-48 h
[5] = system: de novo thymidylate synthesis in L1210 cells; assay: Incorporation of 3H dUrd into acid-precipitable material in L1210 cells; format: cell-based; settings: Mus musculus, L1210, 10 min; 10 uM, by about 10 minutes
Method: L1210 cells were used at a concentration of 10^5 /ml. Incubation at 37° C. was in complete RPMI tissue culture medium plus or minus drugs for the lengths of time indicated on the graphs. After this time ^3 H dUrd was added at a concentration of 2 uCi/ml (about 0.2 uM). Three 1 ml aliquots were removed after 20 minutes, placed on ice and mixed with 1 ml of ice-cold phosphate buffered saline (PBS). Precipitation onto glass-fibre discs was performed by trichloroacetic acid washing followed by PBS. […] This is an indirect measurement of de novo thymidylate synthesis in whole cells. […] These concentrations are 10 times the ID50 values.

L1210 cells = assay: Reversal of L1210 toxicity by co-incubation with thymidine; format: cell-based
Method: Cells in the log phase of growth were diluted to about 5×10^4 /ml and duplicate 5ml aliquots were added to 50 ml tissue culture flasks containing the appropriate additions (diluted in RPMI and sterilised by Millipore filtration). Cell counts after 48 hours of incubation were obtained by Coulter counting.

alanine transaminase [6] = assay: Hepatotoxicity in rats (plasma alanine transaminase); settings: 100 mg/kg 1 h i.v. infusion
Method: as §2, §3

[7] = Comparative pharmacokinetics in the mouse (plasma, liver, kidney levels); format: in vivo; settings: for concentration at 3 h / concentration at 6 h: plasma, ip, read-out: Plasma quinazoline conc.
Method: 3 Hours and 6 hours after administration groups of three mice at each dose level were sacrificed by exsanguination via cardiac puncture. Plasma was prepared and the livers and kidneys excised and weighed.

[8] = 100 mg/kg i.p., 3 h post-treatment
[9] = 100 mg/kg i.p., 6 h post-treatment
[10] = 300 mg/kg i.p., 3 h post-treatment
[11] = 300 mg/kg i.p., 6 h post-treatment
[12] = 500 mg/kg i.p., 3 h post-treatment
[13] = 500 mg/kg i.p., 6 h post-treatment
[14] = compound 5 uM + 10 uM thymidine

## C#CCN(Cc1ccc2nc[nH]c(=O)c2c1)c1ccc(C(=O)N[C@@H](CCC(=O)O)C(=O)O)cc1 [CB3804, N-(4-(N-((3,4-dihydro-4-oxo-6-quinazolinyl)methyl)prop-2-ynylamino)benzoyl)-L-glutamic acid]
L1210/C15 cells
  L1210/C15 ID50: no inhibition
[1]; 200 mg/kg i.p. daily ×5
  signs of toxicity: no obvious signs of toxicity
  weight loss: no weight loss occurred
[1]; dose levels up to 200 mg/kg
  signs of toxicity: No signs of toxicity were apparent
Alanine transaminase [2]; [8]
  Plasma alanine transaminase level: 19 ± 3 U/L
Alanine transaminase [2]; [9]
  Plasma alanine transaminase level: 10 ± 6 U/L
Alanine transaminase [2]; [10]
  Plasma alanine transaminase level: 10 ± 4 U/L
Alanine transaminase [2]; [11]
  Plasma alanine transaminase level: 8 ± 3 U/L
Alanine transaminase [2]; [12]
  Plasma alanine transaminase level: 16 ± 3 U/L
Alanine transaminase [2]; [13]
  Plasma alanine transaminase level: 16 ± 2 U/L
Alanine transaminase [2]; mice i.p., normal range 5-25U/l
  Levels of alanine transaminase (in words): within the normal range
Alanine transaminase [2]; mice, at the doses studied
  hepatotoxicity: not hepatotoxic
L1210 tumour; 25 mg/kg i.p. daily ×5, versus other treatments
  anti-tumour effectiveness: much less effective
L1210 tumour; 50 mg/kg i.p. daily ×5
  "cures" (survived >100 days): about 65%
L1210 tumour; 100 mg/kg i.p. daily ×5
  "cures" (survived >100 days): about 80%
L1210 tumour; in vivo
  anti-tumour activity compared with CB3717: comparable anti-tumour activity
Pharmacokinetics in rats; rats
  detection in liver or kidneys at the end of the experiment: no CB3804 could be detected
Pharmacokinetics in rats; individual rats
  Kidney level: < 0.5 % dose
  Liver level: < 0.5 % dose
Pharmacokinetics in rats; individual rats, 100 mg/kg
  Cumulative biliary excretion: 80 % dose
  Cumulative urinary excretion: 7 % dose
Pharmacokinetics in rats; rat, bile, iv, 100 mg/kg, Cumulative biliary excretion, individual rats
  dose excreted: 72%
Pharmacokinetics in rats; rat, plasma, iv, 100 mg/kg, Plasma levels, end inf, individual rats
  concentration at 1 h: 274 µM
Pharmacokinetics in rats; rat, plasma, iv, 100 mg/kg, Plasma levels, inf + 1 h, individual rats
  concentration at 2 h: 10 µM
Pharmacokinetics in rats; rat, plasma, iv, 100 mg/kg, Plasma levels, inf + 2 h, individual rats
  concentration at 3 h: < 2000 nM
Pharmacokinetics in rats; rat, plasma, iv, 100 mg/kg, Plasma levels, inf + 3 h, individual rats
  concentration at 4 h: < 2000 nM
Pharmacokinetics in rats; rat, plasma, iv, 100 mg/kg, Plasma levels, inf + 4 h, individual rats
  concentration at 5 h: < 2000 nM
Pharmacokinetics in rats; rat, plasma, iv, 100 mg/kg, Plasma levels, mid inf, individual rats
  concentration at 0.5 h: 275 µM
Pharmacokinetics in rats; rat, urine, iv, 100 mg/kg, Cumulative urinary excretion, individual rats
  dose excreted: 11%
Pharmacokinetics in rats; end inf, individual rats, 100 mg/kg, 60 min
  concentration: 256 µM
Pharmacokinetics in rats; inf + 1 h, individual rats, 120 min, 100 mg/kg, 120 min
  concentration: 19 µM
Pharmacokinetics in rats; inf + 2 h, individual rats, 180 min
  concentration: < 2 µM
Pharmacokinetics in rats; inf + 3 h, individual rats, 240 min
  concentration: < 2 µM
Pharmacokinetics in rats; inf + 4 h, individual rats, 300 min
  concentration: < 2 µM
Pharmacokinetics in rats; mid inf, individual rats, 30 min, 100 mg/kg, 30 min
  concentration: 258 µM
Alanine transaminase [3]
  hepatotoxicity: not hepatotoxic
[4]
  bioavailability following i.p. administration: satisfactory bioavailability
  components in faeces which may represent metabolites: two components were observed in faeces
[4]; faeces, read-out: Faecal excretion of the parent compound
  dose excreted at 48 h: 15 ± 13%
[4]; urine, read-out: Urinary excretion of the parent compound
  dose excreted at 48 h: 4 ± 1%
[5]
  activity at 10 µM: < 20%
L1210 cells; [14]
  Cell count at 48 hours as % control: 98 % control
  Reversal of L1210 toxicity by thymidine: reversal was complete
L1210 cells; compound 50 uM + 10 uM thymidine
  Cell count at 48 hours as % control: 75 % control
Alanine transaminase [6]; rats
  plasma levels of alanine transaminase (in words): did not
Alanine transaminase [6]; individual rats
  Peak plasma alanine transaminase: 57 % pre treatment and 143 % pre treatment
[7]; [8]
  Kidney quinazoline level: < 0.1 % dose administered
  Liver quinazoline level: < 0.1 % dose administered
[7]; [9]
  Kidney quinazoline level: < 0.1 % dose administered
  Liver quinazoline level: < 0.1 % dose administered
[7]; [10]
  Kidney quinazoline level: < 0.03 % dose administered
  Liver quinazoline level: < 0.03 % dose administered
[7]; [11]
  Kidney quinazoline level: < 0.03 % dose administered
  Liver quinazoline level: < 0.03 % dose administered
[7]; [12]
  Kidney quinazoline level: < 0.1 % dose administered
  Liver quinazoline level: < 0.2 % dose administered
[7]; [13]
  Kidney quinazoline level: < 0.1 % dose administered
  Liver quinazoline level: < 0.2 % dose administered
[7]; mice, 3 and 6 hours after i.p. dose, for CB3804 except plasma 3 h at 500 mg/kg
  detection in plasma, liver and kidneys: below the limit of detection
[7]; mouse, in vivo
  accumulation in the kidneys: does not apparently accumulate in the kidneys
[7]; mouse, 100 mg/kg i.p., 3 h post-treatment
  concentration at 3 h: < 5 µM
[7]; mouse, 100 mg/kg i.p., 6 h post-treatment
  concentration at 6 h: < 5 µM
[7]; mouse, 300 mg/kg i.p., 3 h post-treatment
  concentration at 3 h: < 5 µM
[7]; mouse, 300 mg/kg i.p., 6 h post-treatment
  concentration at 6 h: < 5 µM
[7]; mouse, 500 mg/kg i.p., 3 h post-treatment
  concentration at 3 h: 5 µM
[7]; mouse, 500 mg/kg i.p., 6 h post-treatment
  concentration at 6 h: < 5 µM
